Results reported in US11434242B2, “Dopamine-b-hydroxylase inhibitors” (BIAL-PORTELA & Cª, S.A., priority 2017, dated 2022).
Structures can show the parent of a compound that is named as a salt.

Target: T1, Dopamine beta hydroxylase (Rattus norvegicus, UniProt Q05754)
T1 construct: Samples were constituted by the right and left adrenals of each animal; from tissue; host or cells: Wistar rat adrenal glands (homogenate)
T1 sequence (Q05754 1-620): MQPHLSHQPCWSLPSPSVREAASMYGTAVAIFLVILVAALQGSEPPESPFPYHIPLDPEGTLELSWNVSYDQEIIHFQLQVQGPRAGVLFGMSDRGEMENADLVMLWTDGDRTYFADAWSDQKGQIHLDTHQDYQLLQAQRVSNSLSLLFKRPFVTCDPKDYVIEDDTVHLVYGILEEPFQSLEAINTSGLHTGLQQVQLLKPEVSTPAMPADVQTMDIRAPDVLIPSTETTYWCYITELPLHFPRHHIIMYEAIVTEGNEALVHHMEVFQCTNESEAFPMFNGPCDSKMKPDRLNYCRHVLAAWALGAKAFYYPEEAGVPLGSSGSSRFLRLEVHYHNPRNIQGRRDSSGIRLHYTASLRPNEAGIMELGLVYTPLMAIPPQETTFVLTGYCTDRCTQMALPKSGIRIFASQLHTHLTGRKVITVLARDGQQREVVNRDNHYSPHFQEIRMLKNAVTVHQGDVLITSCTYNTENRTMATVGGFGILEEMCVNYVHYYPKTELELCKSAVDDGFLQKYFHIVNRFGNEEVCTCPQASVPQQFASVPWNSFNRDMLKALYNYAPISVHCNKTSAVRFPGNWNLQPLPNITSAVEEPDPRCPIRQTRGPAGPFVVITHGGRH
Assay: DβH activity in rat adrenal gland homogenates after oral administration
Type: in vivo
Conditions: 10 mg/kg oral; for DβH activity in ADR (% Control): rat adrenal gland homogenates, maximal within 6 h post-dose, mean±SD of 4 rats; for DβH inhibition in peripheral tissues such as ADR: rat
Method: Dopamine beta hydroxylase activity in rat adrenal gland homogenates was measured by the method of Nagatsu and Udenfriend (Nagatsu, T. and Udenfriend, S. “Photometric assay of dopamine-μ-hydroxylase activity in human blood.” Clin. Chem. 18(9) 980-983, 1972) with minor modifications. Catalase, N-ethylmaleimide, tyramine, disodium fumarate, pargyline, sodium acetate, ascorbic acid, copper sulfate and octopamine were obtained from Sigma Chemical Co., St. Louis, Mo. 63178. Test compounds were prepared in kleptose 40% at a concentration of 0.75, 2.5 or 7.5 mg/mL to be administered at a dose of 10 mg/kg. Compounds and vehicle (kleptose 40%) were administered to wistar rats and adrenals were collected 0.5 h, 1 h, 2 h, 4 h, 6 h, 8 h, 15 h and 24 h after administration. Samples were constituted by the right and left adrenals of each animal. Adrenals were stored in 200 μL of 50 mM Tris pH 7.4 at −30° C., from date of collection. The samples were homogenized and homogenates were then quantified for protein. Protein concentration was adjusted to 1.6 mg/ml. The various reagents used to make up the incubation buffer were premixed and consisted of the following components: sodium acetate buffer (1 M, pH 5.0, 6.0 mL), sodium fumarate (0.2 M, 1.5 mL), ascorbic acid (0.2 M, 1.5 mL, freshly prepared), pargyline (20 mM, freshly prepared, 1.5 mL), N-ethylmaleimide (0.2 M, 1.5 mL), catalase (55 000 U/ml, 3 mL), copper sulfate (90 μM, 1.67 mL) and ultrapure water (1.33 mL). The standard incubation mixture (total volume, 500 μL) contained: 350 μL of incubation buffer; 125 μL of protein sample (or buffer for blank reaction or standard curve). The reaction mixture was placed in water bath with shaking at 37° C. and pre-incubated for 10 minutes. Tyramine (0.4 M, 25 μL) was added and incubation proceeded for 45 minutes. The reaction contents were exposed to air. A sample of enzyme preparation (with 125 μL of protein sample) that had been added perchloric acid 2 M at the end of the pre-incubation period was used as blank. A blank for each of the tested compounds was used. For octopamine standard curve, perchloric acid 2 M was replaced by increasing concentrations of octopamine prepared in perchloric acid 2 M (0.5, 1, 2.5, 5, 7.5, 10 μg/mL, final concentration). The incubation was stopped by adding 50 μL of 2 M molar perchloric acid, and the mixture was centrifuged at 16000 g for 3 min. The supernatant fluid (500 μL) was transferred to a column (SPE cartridge ISOLUTE SCX-3, 100 mg) and centrifuged at 150 g for 2 min. The column was washed two more times with 0.5 ml of ultrapure water by centrifuging at 150 g for 2 min. The adsorbed octopamine was eluted twice with 250 μL of 4 M ammonium hydroxide by centrifuging at 150 g for 2 min. Octopamine in the eluate was then converted to p-hydroxybenzaldehyde by adding 100 μL of sodium periodate (2%) and incubating for 6 min. Excess periodate was than reduced by adding 100 μl of sodium metabisulfite (10%). Absorbance was measured at […] in a 96 well plate by use of a SpectraMAX plus 384 (Molecular Devices) with software SOFTmax® PRO Software 5.3 spectrophotometer. Absorbance was linear with octopamine concentration from 0.5 to 10 μg/mL. Dopamine beta hydroxylase activity is determined as nmol of octopamine formed/mg of protein/hour and effect of compounds is presented as % of control.

Row | DβH activity in ADR (% Control) | DβH inhibition in peripheral tissues such as ADR | Compound
1 | 43 ± 9 | inhibit DβH | Cn1c(CC(=O)O)c2n(c1=S)C[C@@]1(c3c(F)ccc(Cl)c3F)C[C@@H]21 [Example 231, 2-((5aS,6aR)-5a-(3-chloro-2,6-difluorophenyl)-2-methyl-3-thioxo-2,3,5,5a,6,6a-hexahydrocyclopropa[3,4]pyrrolo[1,2-c]imidazol-1-yl)acetic Acid]
2 | 0 ± 0 | inhibit DβH | CN(C(=O)Cc1c2n(c(=S)n1C)C[C@@]1(c3c(F)ccc(Cl)c3F)C[C@@H]21)C1COC1 [Example 403, 2-((5aS,6aR)-5a-(3-chloro-2,6-difluorophenyl)-2-methyl-3-thioxo-2,3,5,5a,6,6a-hexahydrocyclopropa[3,4]pyrrolo[1,2-c]imidazol-1-yl)-N-methyl-N-(oxetan-3-yl)acetamide]
3 | 39 ± 18 | inhibit DβH | Cl.Fc1ccc(Cl)cc1[C@]12C[C@H]1c1c(CCN3CCOCC3)[nH]c(=S)n1C2 [Example 174, (5aS,6aR)-5a-(5-chloro-2-fluorophenyl)-1-(2-morpholinoethyl)-5,5a,6,6a-tetrahydrocyclopropa[3,4]pyrrolo[1,2-c]imidazole-3(2H)-thione hydrochloride]
4 | 45 ± 8 | inhibit DβH | F.Fc1ccc(Br)cc1[C@]12C[C@H]1c1c(CCN3CCOCC3)[nH]c(=S)n1C2 [Example 191, (5aS,6aR)-5a-(5-bromo-2-fluorophenyl)-1-(2-morpholinoethyl)-5,5a,6,6a-tetrahydrocyclopropa[3,4]pyrrolo[1,2-c]imidazole-3(2H)-thione hydrofluoride]
5 | 21 ± 9 | inhibit DβH | Fc1ccc(Br)c(F)c1[C@@H]1Cc2c(CCN3CCOCC3)[nH]c(=S)n2C1 [Example 195, (S)-6-(3-bromo-2,6-difluorophenyl)-1-(2-morpholinoethyl)-2,5,6,7-tetrahydro-3H-pyrrolo[1,2-c]imidazole-3-thione]
6 | 43 ± 16 | inhibit DβH | Fc1cc(F)c(F)c([C@H]2Cc3c(CCCN4CCCC4)[nH]c(=S)n3C2)c1F [Example 219, (R)-1-(3-(pyrrolidin-1-yl)propyl)-6-(2,3,5,6-tetrafluorophenyl)-2,5,6,7-tetrahydro-3H-pyrrolo[1,2-c]imidazole-3-thione hydrochloride]
7 | 44 ± 22 | inhibit DβH | Cl.Cn1c(CCN[C@@H]2CCOC2)c2n(c1=S)C[C@H](c1c(F)ccc(Br)c1F)C2 [Example 256, (S)-6-(3-bromo-2,6-difluorophenyl)-2-methyl-1-(2-(((R)-tetrahydrofuran-3-yl)amino)ethyl)-2,5,6,7-tetrahydro-3H-pyrrolo[1,2-c]imidazole-3-thione hydrochloride]
